Experimental data from ChEMBL document CHEMBL1201862, “PubChem BioAssay data set” (2004).
Calls of active or inactive are those of the source. Rule as the data show it: actives have a measured IC50 and inactives only a lower limit.

These molecules were tested against Envelope glycoprotein gp160 (Human immunodeficiency virus 1, UniProt Q6QLK5) (assay: cell-free HIV fusion peptide-binding blockers – biochemical, uHTS, fluorescence dequenching, […] (AID 1986)).
Envelope glycoprotein gp160, sequence (Q6QLK5 whole entry, the tested form may be a part): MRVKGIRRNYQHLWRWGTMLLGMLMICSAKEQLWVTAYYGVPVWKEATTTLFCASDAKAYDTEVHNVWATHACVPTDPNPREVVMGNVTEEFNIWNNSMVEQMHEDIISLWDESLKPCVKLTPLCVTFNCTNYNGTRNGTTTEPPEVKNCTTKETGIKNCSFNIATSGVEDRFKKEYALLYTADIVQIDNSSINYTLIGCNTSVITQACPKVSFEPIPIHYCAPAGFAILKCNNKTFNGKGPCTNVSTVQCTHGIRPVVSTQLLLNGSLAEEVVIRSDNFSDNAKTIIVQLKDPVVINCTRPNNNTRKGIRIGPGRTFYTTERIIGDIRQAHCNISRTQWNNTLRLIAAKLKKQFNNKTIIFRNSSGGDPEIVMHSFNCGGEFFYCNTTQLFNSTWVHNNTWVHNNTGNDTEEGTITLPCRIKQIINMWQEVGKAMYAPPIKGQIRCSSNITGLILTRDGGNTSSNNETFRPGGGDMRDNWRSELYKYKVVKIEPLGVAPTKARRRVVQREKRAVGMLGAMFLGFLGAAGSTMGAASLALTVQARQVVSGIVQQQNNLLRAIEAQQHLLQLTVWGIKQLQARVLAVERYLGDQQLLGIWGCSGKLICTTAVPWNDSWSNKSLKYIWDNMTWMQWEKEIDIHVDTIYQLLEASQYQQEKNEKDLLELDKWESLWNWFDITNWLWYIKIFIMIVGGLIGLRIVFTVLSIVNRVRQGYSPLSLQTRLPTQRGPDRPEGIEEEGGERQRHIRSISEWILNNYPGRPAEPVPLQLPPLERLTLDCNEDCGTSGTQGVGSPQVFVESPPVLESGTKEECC
In the case of `Cc1cccc(C)c1-n1cccc1/C=C1\SC(=S)N(c2cccc(C(=O)O)c2)C1=O`, the IC50 is reported as 22.4 µM (active). In the case of `CCC(C)(C)C1CCc2c(sc(NC(=O)c3ccccc3C(=O)O)c2C#N)C1` (stereo not drawn), the IC50 is reported as 12.9 µM (active). For `CCCOc1ccc(C(=O)NNC(=S)NC(=O)c2cc(-c3ccccc3)nc3ccccc23)cc1`, the IC50 was 30.9 µM (active).
